In US20240398783A1, “Compounds and Pharmaceutical Compositions Comprising Inhibitors of Amyloid Peptide Interactions with Glycosaminoglycans, Methods of Treatment and Use Thereof” (Gismo Therapeutics, Inc., priority 2021, published 2024) one finds IC50 data, which are given here for 17 molecules.

Molecules are shown by their SMILES. Counter-ions that a name gives are not always drawn.

For the first assay, the target named is T1, SAA binding to purified THP-1 cell membranes (Homo sapiens, UniProt P0DJI8).
T1 sequence (P0DJI8 19-122): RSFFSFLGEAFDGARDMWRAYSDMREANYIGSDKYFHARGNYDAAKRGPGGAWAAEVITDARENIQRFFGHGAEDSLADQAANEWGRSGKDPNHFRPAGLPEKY
Nature of the assay: Inhibition of SAA binding to purified cell membranes (ELISA). To be noted: purified cell membranes (THP-1 per Example 54), hydrochloride, read-out: Serum Amyloid A/Membrane Activity (IC-50). The method, then:
THP-1 (human acute monocyte leukemia cell line; ATCC cat. no. TIB-202) cell membranes were prepared by differential centrifugation as follows. THP-1 cell was grown in RPMI 1640 media (GIBCO Cat. No. 21875034, supplemented with 10% FBS) at 37 degree Celsius 5% CO2 atmosphere, harvested, and stored at −80 degree Celsius. Frozen THP-1 cells were homogenized in HEPES-Buffered sucrose (0.32M sucrose, 4 mM HEPES pH7.4, protease inhibitors) with a motor driven glass-teflon homogenizer. After removing nuclear and cell debris by centrifugation of homogenates at 1,000×g for 10 min at 4 degree Celsius, post-nuclear supernatant was centrifuged at 10,000×g for 15 minutes to remove mitochondrial fraction. Resulting supernatant was centrifuged at 100,000×g for 30 minutes to yield the crude membrane pellet. Crude membrane pellet was re-suspended in 0.32M sucrose, then centrifuged again at 100,000 xg for 30 minutes to yield washed membrane pellet. Membrane pellet was resuspended in sterile PBS (pH7.4), quickly frozen and kept in aliquots at −80 degrees Celsius. This preparation contains mostly cell membranes. Protein concentration was measured with BCA protein assay kit (Pierce Cat. No. 23227). The binding assay was performed as described in Example 48, with the following modifications. Following to coating the plates with purified human THP-1 cell membranes at 0.01 mg/ml concentration, plates were washed and blocked with 2% milk as described. The compounds were dissolved in DMSO at 10 mM final concentration and further diluted prior to assay. DMSO concentration in the screening well was up to 2%. Individual compounds were co-incubated with SAA on plates coated with cell membranes. SAA from PreProtech (NJ, USA, Cat. No. 300-53) was dissolved in DMSO, quickly frozen and kept in aliquots at −80 degrees Celsius. SAA dissolved in Tris Buffer (pH 6.5, supplemented with BSA, 0.1%) was added to the ELISA plate (100 μl per well) and incubated for 2 hours at RT with gentle shaking. Following the incubation, the plate was washed with de-ionized water and three times with TBS (pH 6.5) plus Tween. Bound SAA was detected by Anti-SAA Monoclonal Antibody (R&D System Cat. No. MAB30192, followed by secondary anti-IgG antibody conjugated to HRP (R&D System, Cat. No. HAF007). Antibody was diluted in TBS antibody buffer (pH6.5 supplemented with 1% BSA). Following each incubation with antibody, the plate was washed with de-ionized water and three times with TBS (pH6.5) wash buffer containing 0.1% Tween. Following to color development with TMB, as described in Example 49, the Optical Density of the samples was measured at 450 nm using an ELISA plate reader. Following color development, the % inhibition compared to control (no compound, DMSO control) for every compound was determined.
For each compound IC-50 value is shown in μM (micromolar). In some cases IC-50 was not measured and % inhibition at 30 μM compound concentration is shown instead. […] All assays were done on 96-well plates in duplicates and experiments were repeated at least twice. In the Table, the following abbreviations are used: A: compounds that inhibited>30% at 30 μM concentrations; B: compounds that inhibited<30% at 30 μM concentrations; NT: compounds for which inhibition curve was not obtained.
(In general: An ELISA detects its analyte on a solid surface through an enzyme-linked reagent.)
On to `C/C(=N\Nc1ncnc2cc(Cl)ccc12)c1ccc(-n2cc(C)nc2C)nc1` [Compound 27, (E)-7-chloro-4-(2-(1-(6-(2,4-dimethyl-1H-imidazol-1-yl)pyridin-3-yl)ethylidene)hydrazineyl)quinazoline hydrochloride], for which the IC50 was 14 µM.

The assay is the same for the next values; noted with them: purified cell membranes (THP-1 per Example 54), read-out: Serum Amyloid A/Membrane Activity (IC-50).
With `Cc1cc(-n2ccnc2)ccc1/C=N/Nc1ccnc2cc(Cl)ccc12` [Compound 1, (E)-4-((E)-(4-(1H-imidazol-1-yl)-2-methylbenzylidene)hydrazono)-7-chloro-1,4-dihydroquinoline], the IC50 came to 12.3 µM.

Regarding `C/C(=N\Nc1ncnc2cc(Cl)ccc12)c1ccc(-n2cc(C)nc2C)nc1` [Compound 18, (E)-7-chloro-4-(2-(1-(6-(2,4-dimethyl-1H-imidazol-1-yl)pyridin-3-yl)ethylidene)hydrazineyl)quinazoline phosphoric acid salt], the IC50 came to 24 µM.

Turning to `C/C(=N\Nc1ncnc2cc(F)ccc12)c1ccc(-n2cnc(C)c2C)nc1` [Compound 21, (E)-4-(2-(1-(6-(4,5-dimethyl-1H-imidazol-1-yl)pyridin-3-yl)ethylidene)hydrazineyl)-7-fluoroquinazoline], the IC50 was 47.8 µM.

Consider `C/C(=N\Nc1nncc2cc(Cl)ccc12)c1ccc(-n2cc(C)nc2C)nc1` [Compound 24, (E)-6-chloro-1-(2-(1-(6-(2,4-dimethyl-1H-imidazol-1-yl)pyridin-3-yl)ethylidene)hydrazineyl)phthalazine], for which the IC50 was found to be 8.22 µM.

`CC(=NNc1ncnc2cc(Cl)ccc12)c1ccnc(-n2cnc(C)c2C)c1` [Compound 28, 7-chloro-4-(2-(1-(2-(4,5-dimethyl-1H-imidazol-1-yl)pyridin-4-yl)ethylidene)hydrazineyl)quinazoline]: the IC50 worked out at 22.9 µM.

For the molecule `Clc1ccc2c(Nc3ccc(-n4ccnc4)nc3)ncnc2c1` [Compound 41, N-(6-(1H-imidazol-1-yl)pyridin-3-yl)-7-chloroquinazolin-4-amine], the IC50 turned out to be 13.2 µM.

Still in this assay, the particulars now being: read-out: Serum Amyloid A/Membrane Activity (IC-50), purified cell membranes (THP-1 per Example 54).
`COc1cc2nccc(N/N=C/c3ccc(-n4ccnc4)c(OC)c3)c2cc1OC` [Compound 13, (E)-4-(2-(4-(1H-imidazol-1-yl)-3-methoxybenzylidene)hydrazineyl)-6,7-dimethoxyquinoline phosphate]: the IC50 came out at 44.5 µM.

For the molecule `Clc1ccc2c(N/N=C/c3ccc(-n4ccnc4)nc3)ccnc2c1` [Compound 14, (E)-4-(2-((6-(1H-imidazol-1-yl)pyridin-3-yl)methylene)hydrazineyl)-7-chloroquinoline hydrochloride], the IC50 was found to be 27.5 µM.

For the molecule `Cc1ncn(-c2ccc(/C=N\Nc3ncnc4cc(Cl)ccc34)cn2)c1C` [Compound 15, 7-chloro-4-(2-((6-(4,5-dimethyl-1H-imidazol-1-yl)pyridin-3-yl)methylene)hydrazineyl)quinazoline hydrochloride], the IC50 was 32.5 µM.

Consider `C/C(=N\Nc1ncnc2cc(Cl)ccc12)c1ccc(-n2cnc(C)c2C)nc1` [Compound 16, 7-chloro-4-(2-(1-(6-(4,5-dimethyl-1H-imidazol-1-yl)pyridin-3-yl)ethylidene)hydrazineyl)quinazoline phosphate], for which the IC50 stood at 9.93 µM.

With `Cc1ncn(-c2ccc(Nc3ncnc4cc(Cl)ccc34)cn2)c1C` [Compound 25, 7-chloro-N-(6-(4,5-dimethyl-1H-imidazol-1-yl)pyridin-3-yl)quinazolin-4-amine], the IC50 came out at 22 µM.

In the case of `COc1cc(Nc2nncc3cc(Cl)ccc23)cnc1-n1cnc(C)c1C` [Compound 31, 6-chloro-N-(6-(4,5-dimethyl-1H-imidazol-1-yl)-5-methoxypyridin-3-yl)phthalazin-1-amine phosphoric acid salt], the IC50 was determined as 70.8 µM.

Regarding `Clc1ccc2c(Nc3ccc(-n4cncn4)nc3)ncnc2c1` [Compound 34, N-(6-(1H-1,2,4-triazol-1-yl)pyridin-3-yl)-7-chloroquinazolin-4-amine phosphoric acid salt], the IC50 amounted to 8.66 µM.

Consider `CC(=NNc1ccnc2cc(Cl)ccc12)c1ccc(-n2ccnc2)cc1` [Compound 36, 4-(2-(1-(4-(1H-imidazol-1-yl)phenyl)ethylidene)hydrazineyl)-7-chloroquinoline phosphate], for which the IC50 turned out to be 15.3 µM.

With `Clc1ccc2c(N/N=C/c3ccc(-n4ccnc4)cc3)ccnc2c1` [Compound 38, 4-(2-(4-(1H-imidazol-1-yl)benzylidene)hydrazineyl)-7-chloroquinoline dihydrochloride], the IC50 was 23.6 µM.

For the molecule `Clc1ccc2c(Nc3ccc(-n4cncn4)nc3)ccnc2c1` [Compound 44, N-(6-(1H-1,2,4-triazol-1-yl)pyridin-3-yl)-7-chloroquinolin-4-amine], the IC50 is 11.4 µM.
